In general, IC50 refers to the point on the concentration scale where inhibition reaches its midpoint.

Assay [1] is described as follows: Downregulation of Hsp27 expression in human keratinocytes at 10 uM. It is filed as functional, cell-based. The following applies: Keratinocyte.
Assay [2] in a line: Cytotoxicity against human HEI-193 cells harboring NF2 mutant assessed as growth inhibition after 72 hrs by MTT assay. It is filed as functional, cell-based. Particulars: HEI-193, 72 h.
Assay [3] has as its target Actin, cytoplasmic 1 (Homo sapiens) (UniProt P60709). The assay can be described thus: Binding affinity to beta-actin in human HEI-193 cells harboring NF2 mutant at 100 uM after 30 mins by SDS-PAGE analysis. It is filed as cell-based.
In assay [4] the target is T1, D-3-phosphoglycerate dehydrogenase (Homo sapiens) (UniProt O43175).
T1 sequence (whole entry): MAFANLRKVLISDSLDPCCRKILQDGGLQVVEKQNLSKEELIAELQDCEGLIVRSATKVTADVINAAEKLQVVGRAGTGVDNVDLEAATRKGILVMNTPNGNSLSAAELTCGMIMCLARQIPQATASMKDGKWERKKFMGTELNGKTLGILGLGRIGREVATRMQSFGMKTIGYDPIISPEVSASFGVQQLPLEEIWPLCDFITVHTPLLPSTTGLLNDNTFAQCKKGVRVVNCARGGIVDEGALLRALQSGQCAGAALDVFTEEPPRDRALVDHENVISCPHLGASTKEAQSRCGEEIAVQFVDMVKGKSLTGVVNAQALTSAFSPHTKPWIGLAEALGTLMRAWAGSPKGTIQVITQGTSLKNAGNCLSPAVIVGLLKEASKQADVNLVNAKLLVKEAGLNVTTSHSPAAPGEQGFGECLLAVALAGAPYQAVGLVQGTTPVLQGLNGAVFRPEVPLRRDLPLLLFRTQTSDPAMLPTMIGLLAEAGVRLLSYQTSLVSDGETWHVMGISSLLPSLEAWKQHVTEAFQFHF
The assay can be described thus: Binding affinity to 3-PGDH in human HEI-193 cells harboring NF2 mutant at 100 uM after 30 mins by SDS-PAGE analysis. The assay is classed as cell-based.

Assay [5] has as its target Heat shock protein HSP90 (Homo sapiens) (UniProt P07900+P08238). Nature of the assay: Binding affinity to Hsp90 in human HEI-193 cells harboring NF2 mutant at 100 uM after 30 mins by SDS-PAGE analysis. It is filed as cell-based.
For assay [6], the system named is HEI-193. The assay can be described thus: Binding affinity to Hsp70 in human HEI-193 cells harboring NF2 mutant at 100 uM after 30 mins by SDS-PAGE analysis. The assay is classed as cell-based.

SMILES strings stand for the structures. Calls of active or inactive are those of the source. The rule behind the calls is not given here.

As to `COc1cc(/C=C/C(=O)CC(=O)/C=C/c2ccc(O)c(OC)c2)ccc1O` [CURCUMIN], the Activity in assay [1] worked out at 34%. Moreover, the IC50 in assay [2] is 18 µM.
In the case of `COc1cc(/C=C/C(=O)CC(=O)/C=C/c2ccc(OC(=O)CCCC(=O)NCCCOCCOCCOCCCNC(=O)CCCC[C@@H]3SC[C@@H]4NC(=O)N[C@@H]43)c(OC)c2)ccc1O`, the outcome in assay [3], in assay [4], in assay [5] and in assay [6] was Active. In addition, in assay [2], the IC50 came to 36 µM.

The values are drawn from ChEMBL document CHEMBL2311428, “Binding partners for curcumin in human schwannoma cells: biologic implications” (Bioorg Med Chem, 2013).
